In brackets after ≈: the same amount, converted by molar mass. Activity calls are given as the source filed them. The calls are words filed in the database; no cut-off is given here.
Key:
[1] = system: Staphylococcus aureus; assay: Antibacterial activity against methicillin-resistant Staphylococcus aureus 936 after 18 hrs by CLSI based broth microdilution method; format: functional; settings: Staphylococcus aureus, 936, 18 h
[2] = system: Escherichia coli; assay: Ratio of antibacterial activity against Escherichia coli ATCC 25922 in presence of NaCl to antibacterial activity against Escherichia coli ATCC 25922; format: functional
[3] = system: Pseudomonas aeruginosa; assay: Potentiation of polymyxin B-induced antibacterial activity against Pseudomonas aeruginosa ATCC 27853 assessed as FICI after 18 hrs by checker board assay; format: functional
[4] = system: Pseudomonas aeruginosa; assay: Potentiation of rifampicin-induced antibacterial activity against Pseudomonas aeruginosa ATCC 27853 assessed as FICI after 18 hrs by checker board assay; format: functional
[5] = system: Bacillus subtilis; assay: Antibacterial activity against Bacillus subtilis ATCC 23857 after 18 hrs by CLSI based broth microdilution method; format: functional; settings: ATCC 23857, 18 h
[6] = system: Escherichia coli; assay: Induction of inner membrane permeabilization in Escherichia coli ATCC 43837 assessed as increase in ONPG release at 1 to 2 times of MIC by ONPG dye based assay; format: organism-based
[7] = Selectivity index, ratio of MHC10 for human RBC to geometric mean of peptide MIC for gram negative bacteria; format: toxicity; settings: human red blood cells, read-out: Selectivity Index
[8] = system: Escherichia coli; assay: Disruption of membrane integrity in Escherichia coli ATCC 25922 assessed as membrane damage by measuring PI fluorescence incubated for 1 hr by PI dye based flow cytometric analysis; format: functional, organism-based
[9] = Selectivity index, ratio of MHC10 for human RBC to geometric mean of peptide MIC for gram positive bacteria; format: toxicity; settings: human red blood cells, read-out: Selectivity Index
[10] = system: Escherichia coli; assay: Ratio of antibacterial activity against Escherichia coli ATCC 25922 in presence of KCl to antibacterial activity against Escherichia coli ATCC 25922; format: functional
[11] = system: Escherichia coli; assay: Induction of membrane disruption in Escherichia coli ATCC 25922 assessed as degeneration in membrane at 4 times of MIC after 2 hrs by SEM analysis; format: functional, organism-based
[12] = system: Escherichia coli; assay: Disruption of membrane integrity in Escherichia coli ATCC 25922 assessed as membrane damage by measuring PI fluorescence at 2 times of MIC incubated for 1 hr by PI dye based flow cytometric analysis (reference value: 1.35%); format: functional
[13] = system: Escherichia coli; assay: Ratio of MIC for Escherichia coli ATCC 25922 preincubated for 6 hrs in presence of 10% mouse serum and measured after 18 hrs to MIC for antibacterial activity against Escherichia coli ATCC 25922 after 18 hrs; format: functional
[14] = system: Escherichia coli; assay: Antibacterial activity against Escherichia coli ATCC 25922 after 18 hrs by CLSI based broth microdilution method; format: functional; settings: ATCC 25922, 18 h
[15] = system: Pseudomonas aeruginosa; assay: Antibiofilm activity against Pseudomonas aeruginosa ATCC 27853 after 24 hrs by crystal violet staining based assay; format: functional, organism-based
[16] = system: Escherichia coli; assay: Disruption of membrane integrity in Escherichia coli ATCC 25922 assessed as membrane damage by measuring PI fluorescence at 4 times of MIC incubated for 1 hr by PI dye based flow cytometric analysis (reference value: 1.35%); format: functional
[17] = system: Staphylococcus aureus; assay: Antibacterial activity against Staphylococcus aureus ATCC 25923 after 18 hrs by CLSI based broth microdilution method; format: functional; settings: ATCC 25923, 18 h
[18] = system: Escherichia coli; assay: Antibacterial activity against Escherichia coli ATCC 43837 after 18 hrs by CLSI based broth microdilution method; format: functional; settings: ATCC 43837, 18 h
[19] = system: Klebsiella pneumoniae; assay: Potentiation of rifampicin-induced antibacterial activity against Klebsiella pneumoniae ATCC 700603 assessed as FICI after 18 hrs by checker board assay; format: functional
[20] = system: Escherichia coli; assay: Induction of membrane disruption in Escherichia coli ATCC 25922 assessed as fracture in membrane at 4 times of MIC after 2 hrs by SEM analysis; format: functional, organism-based
[21] = system: Pseudomonas aeruginosa; assay: Antibiofilm activity against Pseudomonas aeruginosa ATCC 27853 at 0.25 to 2 times of MIC after 24 hrs by crystal violet staining based assay; format: functional, organism-based
[22] = system: Escherichia coli; assay: Antibacterial activity against Escherichia coli ATCC 25922 at 0.5 times MIC incubated for 18 hrs measured for 15 passages by CLSI based broth microdilution method; format: functional, organism-based
[23] = system: Escherichia coli; assay: Antibiofilm activity against Escherichia coli ATCC 25922 after 24 hrs by crystal violet staining based assay; format: functional, organism-based
[24] = system: Klebsiella pneumoniae; assay: Potentiation of polymyxin B-induced antibacterial activity against Klebsiella pneumoniae ATCC 700603 assessed as FICI after 18 hrs by checker board assay; format: functional
[25] = system: Escherichia coli; assay: Potentiation of rifampicin-induced antibacterial activity against Escherichia coli ATCC 25922 assessed as FICI after 18 hrs by checker board assay; format: functional
[26] = system: Escherichia coli; assay: Antimicrobial activity against Escherichia coli ATCC 25922 at 1 mM preincubated for 6 hrs in presence of 2000 ug/ml trypsin and measured after 18 hrs by microplate reader analysis; format: functional, organism-based
[27] = system: Escherichia coli; assay: Potentiation of polymyxin B-induced antibacterial activity against Escherichia coli ATCC 25922 assessed as FICI after 18 hrs by checker board assay; format: functional
[28] = system: Erythrocyte; assay: Hemolytic activity in human RBC measured after 1 hr by microplate reader analysis; format: ADME, cell-based
[29] = system: Staphylococcus aureus; assay: Ratio of antibacterial activity against Staphylococcus aureus ATCC 25923 in presence of FeCl3 to antibacterial activity against Staphylococcus aureus ATCC 25923; format: functional
[30] = system: Escherichia coli; assay: Induction of membrane disruption in Escherichia coli ATCC 25922 assessed as rough membrane surface at 4 times of MIC after 2 hrs by SEM analysis; format: functional, organism-based
[31] = system: Escherichia coli; assay: Antimicrobial activity against Escherichia coli ATCC 25922 at 1 mM preincubated for 6 hrs in presence of 2 ug/ml chymotrypsin and measured after 18 hrs by microplate reader analysis; format: functional, organism-based
[32] = system: Staphylococcus aureus; assay: Ratio of antibacterial activity against Staphylococcus aureus ATCC 25923 in presence of MgCl2 to antibacterial activity against Staphylococcus aureus ATCC 25923; format: functional
[33] = system: Escherichia coli; assay: Induction of ROS generation in Escherichia coli ATCC 25922; format: functional, organism-based
[34] = system: Escherichia coli; assay: Ratio of antibacterial activity against Escherichia coli ATCC 25922 in presence of FeCl3 to antibacterial activity against Escherichia coli ATCC 25922; format: functional
[35] = system: Staphylococcus aureus; assay: Ratio of antibacterial activity against Staphylococcus aureus ATCC 25923 in presence of KCl to antibacterial activity against Staphylococcus aureus ATCC 25923; format: functional
[36] = system: Escherichia coli; assay: Ratio of antibacterial activity against Escherichia coli ATCC 25922 in presence of MgCl2 to antibacterial activity against Escherichia coli ATCC 25922; format: functional
[37] = system: Escherichia coli; assay: Antibiofilm activity against Escherichia coli ATCC 25922 at 2 times MIC after 24 hrs by crystal violet staining based assay; format: functional, organism-based
[38] = system: Staphylococcus aureus; assay: Antibiofilm activity against Staphylococcus aureus ATCC 25923 after 24 hrs by crystal violet staining based assay; format: functional, organism-based
[39] = system: Escherichia coli; assay: Induction of membrane disruption in Escherichia coli ATCC 25922 assessed as corrugated membrane surface at 4 times of MIC after 2 hrs by SEM analysis; format: functional, organism-based
[40] = system: Staphylococcus aureus; assay: Ratio of antibacterial activity against Staphylococcus aureus ATCC 25923 in presence of NaCl to antibacterial activity against Staphylococcus aureus ATCC 25923; format: functional
[41] = system: Pseudomonas aeruginosa; assay: Antibacterial activity against Pseudomonas aeruginosa ATCC 27853 after 18 hrs by CLSI based broth microdilution method; format: functional; settings: ATCC 27853, 18 h

With `CCCCCCCC(=O)NC(Cc1cn(CCCC[C@H](NC(C)=O)C(=O)NCC(=O)N[C@@H](CC(C)C)C(=O)N[C@@H](CC(C)C)C(=O)N[C@H](CCCCN)C(=O)N[C@@H](CCCNC(=N)N)C(=O)N[C@H](C(=O)N[C@H](CCCCN)C(=O)N[C@H](C(=O)N[C@@H](CC(C)C)C(=O)N[C@@H](CC(C)C)C(N)=O)[C@@H](C)O)[C@@H](C)CC)nn1)C(=O)NCC(=O)N[C@@H](CC(C)C)C(=O)N[C@@H](CC(C)C)C(=O)N[C@H](CCCCN)C(=O)N[C@@H](CCCNC(=N)N)C(=O)N[C@H](C(=O)N[C@H](CCCCN)C(=O)N[C@H](C(=O)N[C@@H](CC(C)C)C(=O)N[C@@H](CC(C)C)C(N)=O)[C@@H](C)O)[C@@H](C)CC` (stereo partly specified) the MIC [1] was 16 µM (≈ 43.6 µg/mL), the Ratio [2] was 2 - 4 and the “fractional inhibitory concentration index (FICI)” value [3] was 0.5625. The “fractional inhibitory concentration index (FICI)” value [4] was 0.5625, the MIC [5] was 2 µM (≈ 5.45 µg/mL) and the Activity [6] was “Active”. The selectivity ratio [7] was 14.2, the Activity [8] was “Dose-dependent effect” and the selectivity ratio [9] was 11.3. The Ratio [10] was 2 - 4, the Activity [11] was “Active” and the Activity [12] was 13.4%. The Ratio [13] was 4, the MIC [14] was 4 µM (≈ 10.9 µg/mL) and the inhibition [15] was “Dose-dependent effect”. The Activity [16] was 32.1%, the MIC [17] was 16 µM (≈ 43.6 µg/mL) and the MIC [18] was 8 µM (≈ 21.8 µg/mL). The “fractional inhibitory concentration index (FICI)” value [19] was 0.5625, the Activity [20] was “Active” and the inhibition [21] was “Active”. The Activity [22] was “Active”, the inhibition [23] was “Dose-dependent effect” and the “fractional inhibitory concentration index (FICI)” value [24] was 0.3125. The “fractional inhibitory concentration index (FICI)” value [25] was 0.5625, the Activity [26] was “Active” and the “fractional inhibitory concentration index (FICI)” value [27] was 0.3125. The MHC10 [28] was 128 µM, the Ratio [29] was 2 - 4 and the Activity [30] was “Active”. The Activity [31] was “Active”, the Ratio [32] was 2 - 4 and the Activity [33] was “inactive”. The Ratio [34] was 2 - 4, the Ratio [35] was 2 - 4 and the Ratio [36] was 2 - 4. For the same compound, the inhibition [37] was “Active”, the inhibition [38] was “Dose-dependent effect” and the Activity [39] was “Active”. For the same compound, the Ratio [40] was 2 - 4 and the MIC [41] was 8 µM (≈ 21.8 µg/mL).
With `CCCCCCCCCCCC(=O)NCC(=O)N[C@@H](CC(C)C)C(=O)N[C@@H](CC(C)C)C(=O)N[C@H](CCCCN)C(=O)N[C@@H](CCCNC(=N)N)C(=O)N[C@H](C(=O)N[C@H](CCCCN)C(=O)N[C@H](C(=O)N[C@@H](CC(C)C)C(=O)N[C@@H](CC(C)C)C(N)=O)[C@@H](C)O)[C@@H](C)CC` the MIC [1] was 16 µM (≈ 21.4 µg/mL), the Ratio [2] was 2 - 4 and the “fractional inhibitory concentration index (FICI)” value [3] was 0.1875. The “fractional inhibitory concentration index (FICI)” value [4] was 0.3125, the MIC [5] was 2 µM (≈ 2.67 µg/mL) and the Activity [6] was “Active”. For the same compound, the selectivity ratio [7] was 1.14, the Activity [8] was “Dose-dependent effect” and the selectivity ratio [9] was 2.18. The Ratio [10] was 2 - 4, the Activity [11] was “Active” and the Activity [12] was 60.8%. The Ratio [13] was 2, the MIC [14] was 16 µM (≈ 21.4 µg/mL) and the inhibition [15] was “Dose-dependent effect”. For the same compound, the Activity [16] was 94.7%, the MIC [17] was 4 µM (≈ 5.34 µg/mL) and the MIC [18] was 16 µM (≈ 21.4 µg/mL). The “fractional inhibitory concentration index (FICI)” value [19] was 0.5625, the Activity [20] was “Active” and the Activity [22] was “Active”. For the same compound, the inhibition [23] was “Dose-dependent effect”, the “fractional inhibitory concentration index (FICI)” value [24] was 0.3125 and the “fractional inhibitory concentration index (FICI)” value [25] was 0.5625. For the same compound, the Activity [26] was “Active”, the “fractional inhibitory concentration index (FICI)” value [27] was 0.1875 and the MHC10 [28] was 16 µM. For the same compound, the Ratio [29] was 2 - 4, the Activity [30] was “Active” and the Activity [31] was “Active”. For the same compound, the Ratio [32] was 2 - 4, the Activity [33] was “inactive” and the Ratio [34] was 2 - 4. For the same compound, the Ratio [35] was 2 - 4, the Ratio [36] was 2 - 4 and the inhibition [37] was “Active”. The inhibition [38] was “Dose-dependent effect”, the Activity [39] was “Active” and the Ratio [40] was 2 - 4. For the same compound, the MIC [41] was 16 µM (≈ 21.4 µg/mL).

Reference: ChEMBL document CHEMBL4359906, “Design and synthesis of new N-terminal fatty acid modified-antimicrobial peptide analogues with potent in vitro biological activity” (Eur J Med Chem, 2019)
